Laboratory results from ChEMBL document CHEMBL1201862, “PubChem BioAssay data set” (2004).
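Grown in 96-well plates, cells were treated for 48 hours with each compound at five concentrations. Insufficient inhibition: endpoint recorded as highest concentration tested. Abbreviation: GI50, concentration required for 50% inhibition of growth.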 Activity calls are given as the source filed them. No stated cut-off is given here; in the data, active = GI50 up to about 1.1 µM and inactive = higher.

Columns and labels:
Experiment in all cases: inhibition of tumour cell growth, NCI panel, 48 h
UACC-62 = tested on: UACC-62
NCI-H522 = tested on: NCI-H522
HL-60 = tested on: HL-60
UO-31 = tested on: UO-31
RPMI-8226 = tested on: RPMI-8226
SW-620 = tested on: SW-620
SF-268 = tested on: SF-268
LXFL 529 = tested on: LXFL 529
U-251 = tested on: U-251
KM-20L2 = tested on: KM-20L2
SN12C = tested on: SN12C
NCI-H226 = tested on: NCI-H226
SR = tested on: SR
SK-MEL-28 = tested on: SK-MEL-28
CCRF-CEM = tested on: CCRF-CEM
Malme-3M = tested on: Malme-3M
K562 = tested on: K562
ACHN = tested on: ACHN
UACC-257 = tested on: UACC-257
M14 = tested on: M14
A549 = tested on: A549
SF-539 = tested on: SF-539
RXF 631 = tested on: RXF 631
HT-29 = tested on: HT-29
KM12 = tested on: KM12
TK-10 = tested on: TK-10
HCT-116 = tested on: HCT-116
IGROV-1 = tested on: IGROV-1
DLD-1 = tested on: DLD-1
SNB-19 = tested on: SNB-19
SK-MEL-2 = tested on: SK-MEL-2
HOP-92 = tested on: HOP-92
MOLT-4 = tested on: MOLT-4
NCI-H23 = tested on: NCI-H23
LOX IMVI = tested on: LOX IMVI
SNB-75 = tested on: SNB-75
DMS-273 = tested on: DMS-273
SK-OV-3 = tested on: SK-OV-3
EKVX = tested on: EKVX
786-0 = tested on: 786-0
XF498 = tested on: XF498
OVCAR-3 = tested on: OVCAR-3
CAKI-1 = tested on: CAKI-1
SF-295 = tested on: SF-295
RXF 393 = tested on: RXF 393
NCI-H460 = tested on: NCI-H460
DMS-114 = tested on: DMS-114
OVCAR-5 = tested on: OVCAR-5
HCC 2998 = tested on: HCC 2998
M19-MEL = tested on: M19-MEL
OVCAR-4 = tested on: OVCAR-4
HOP-18 = tested on: HOP-18
OVCAR-8 = tested on: OVCAR-8
A498 = tested on: A498
HOP-62 = tested on: HOP-62
SK-MEL-5 = tested on: SK-MEL-5
COLO 205 = tested on: COLO 205

Measured: GI50

Cc1ccccc1NC(=O)C1C(=O)N(c2ccccc2C)C(=O)/C1=N\NC(N)=S (stereo not given)
inactive: UACC-62 > 100 µM | NCI-H522 > 100 µM | HL-60 > 100 µM | UO-31 > 100 µM | RPMI-8226 > 100 µM | SW-620 > 100 µM | SF-268 > 100 µM | LXFL 529 > 100 µM | U-251 > 100 µM | KM-20L2 > 100 µM | SN12C > 100 µM | NCI-H226 > 100 µM | SR > 100 µM | SK-MEL-28 > 100 µM | CCRF-CEM > 100 µM | Malme-3M > 100 µM | K562 > 100 µM | ACHN > 100 µM | UACC-257 > 100 µM | M14 > 100 µM | A549 > 100 µM | SF-539 > 100 µM | RXF 631 > 100 µM | HT-29 > 100 µM | KM12 > 100 µM | TK-10 > 100 µM | HCT-116 > 100 µM | IGROV-1 > 100 µM | DLD-1 > 100 µM | SNB-19 > 100 µM | SK-MEL-2 > 100 µM | HOP-92 > 100 µM | MOLT-4 > 100 µM | NCI-H23 > 100 µM | LOX IMVI > 100 µM | SNB-75 > 100 µM | DMS-273 > 100 µM | SK-OV-3 > 100 µM | EKVX > 100 µM | 786-0 > 100 µM | XF498 > 100 µM | OVCAR-3 > 100 µM | CAKI-1 > 100 µM | SF-295 > 100 µM

O=C1C=CC(S(=O)(=O)C2=C/C(=C/Nc3ccc(Cl)cc3)C(=O)C=C2)=C/C1=C/Nc1ccc(Cl)cc1
inactive: UACC-62 > 100 µM | NCI-H522 > 100 µM | HL-60 > 100 µM | RXF 393 > 100 µM | UO-31 > 100 µM | RPMI-8226 > 100 µM | SW-620 > 100 µM | SF-268 > 100 µM | LXFL 529 > 100 µM | U-251 > 100 µM | KM-20L2 > 100 µM | SN12C > 100 µM | NCI-H226 > 100 µM | SR > 100 µM | SK-MEL-28 > 100 µM | CCRF-CEM > 100 µM | NCI-H460 > 100 µM | Malme-3M > 100 µM | K562 > 100 µM | ACHN > 100 µM | DMS-114 > 100 µM | UACC-257 > 100 µM | M14 > 100 µM | A549 > 100 µM | SF-539 > 100 µM | RXF 631 > 100 µM | HT-29 > 100 µM | KM12 > 100 µM | OVCAR-5 > 100 µM | TK-10 > 100 µM | HCT-116 > 100 µM | IGROV-1 > 100 µM | DLD-1 > 100 µM | SNB-19 > 100 µM | HCC 2998 > 100 µM | M19-MEL > 100 µM | SK-MEL-2 > 100 µM | HOP-92 > 100 µM | OVCAR-4 > 100 µM | MOLT-4 > 100 µM | HOP-18 > 100 µM | OVCAR-8 > 100 µM | A498 > 100 µM | NCI-H23 > 100 µM | LOX IMVI > 100 µM | HOP-62 > 100 µM | SNB-75 47.6 µM | DMS-273 > 100 µM | SK-OV-3 > 100 µM | EKVX > 100 µM | 786-0 > 100 µM | SK-MEL-5 > 100 µM | OVCAR-3 > 100 µM | CAKI-1 > 100 µM | SF-295 > 100 µM | COLO 205 > 100 µM
